Results on 3 molecules are retold here after ChEMBL document CHEMBL1201862, “PubChem BioAssay data set” (2004).

Assay [1] deals with T1, Sentrin-specific protease 7 (Homo sapiens, UniProt Q9BQF6).
T1 sequence (Q9BQF6 whole entry): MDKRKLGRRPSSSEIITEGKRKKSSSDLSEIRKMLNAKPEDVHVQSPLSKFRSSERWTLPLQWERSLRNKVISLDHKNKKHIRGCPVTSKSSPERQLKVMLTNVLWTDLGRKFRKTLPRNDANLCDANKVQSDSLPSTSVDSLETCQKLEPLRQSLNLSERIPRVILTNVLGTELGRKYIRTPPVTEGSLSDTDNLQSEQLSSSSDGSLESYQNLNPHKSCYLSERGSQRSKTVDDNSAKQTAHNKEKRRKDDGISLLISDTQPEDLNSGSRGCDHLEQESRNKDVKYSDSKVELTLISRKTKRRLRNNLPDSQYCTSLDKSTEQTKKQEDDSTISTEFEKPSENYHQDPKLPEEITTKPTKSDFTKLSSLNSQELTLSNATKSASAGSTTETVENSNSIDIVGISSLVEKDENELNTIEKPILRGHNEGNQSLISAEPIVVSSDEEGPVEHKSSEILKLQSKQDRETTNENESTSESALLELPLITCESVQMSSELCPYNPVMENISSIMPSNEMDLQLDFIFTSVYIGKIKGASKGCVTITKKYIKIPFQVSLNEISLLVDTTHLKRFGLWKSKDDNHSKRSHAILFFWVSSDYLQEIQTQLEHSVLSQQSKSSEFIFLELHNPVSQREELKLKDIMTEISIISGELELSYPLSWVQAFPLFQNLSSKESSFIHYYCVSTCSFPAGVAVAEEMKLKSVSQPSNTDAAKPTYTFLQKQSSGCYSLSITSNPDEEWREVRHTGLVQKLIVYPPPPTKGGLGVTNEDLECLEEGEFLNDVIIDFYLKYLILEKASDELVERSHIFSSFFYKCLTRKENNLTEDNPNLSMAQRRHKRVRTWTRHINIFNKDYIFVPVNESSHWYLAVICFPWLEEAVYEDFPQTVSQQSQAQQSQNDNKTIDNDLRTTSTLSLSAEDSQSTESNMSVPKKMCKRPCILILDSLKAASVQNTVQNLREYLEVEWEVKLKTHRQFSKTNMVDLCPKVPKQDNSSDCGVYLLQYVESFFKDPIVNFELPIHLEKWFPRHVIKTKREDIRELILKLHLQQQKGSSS
The experiment in a line: SENP7 protease inhibitors, SAR follow-up, biochemical, luminescence, set 2 (AID 588600). It is filed as functional.

Assay [2] deals with T2, Sentrin-specific protease 8 (Homo sapiens, UniProt Q96LD8).
T2 sequence (Q96LD8 whole entry): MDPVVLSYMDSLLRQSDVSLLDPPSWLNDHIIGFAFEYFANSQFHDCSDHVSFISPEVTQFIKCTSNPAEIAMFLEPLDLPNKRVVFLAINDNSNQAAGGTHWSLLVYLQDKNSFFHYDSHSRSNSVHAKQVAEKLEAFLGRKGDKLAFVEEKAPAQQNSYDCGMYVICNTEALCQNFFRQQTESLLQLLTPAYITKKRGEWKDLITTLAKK
The experiment in a line: SENP8 protease inhibitors, SAR follow-up, biochemical, luminescence, set 2 (AID 588601). It counts as functional.

The next assay deals with T3, Caspase-3 (Homo sapiens, UniProt P42574).
T3 sequence (P42574 whole entry): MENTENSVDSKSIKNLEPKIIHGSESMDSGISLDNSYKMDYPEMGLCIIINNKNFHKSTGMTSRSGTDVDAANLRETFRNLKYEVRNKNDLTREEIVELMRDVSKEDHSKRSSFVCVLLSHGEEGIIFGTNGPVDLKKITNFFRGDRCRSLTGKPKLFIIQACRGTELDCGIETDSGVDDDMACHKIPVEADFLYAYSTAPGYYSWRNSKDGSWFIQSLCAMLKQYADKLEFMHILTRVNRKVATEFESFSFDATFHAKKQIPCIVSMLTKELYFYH
The experiment in a line: caspase-3 inhibitors as off-family protease, SAR follow-up, selectivity assay for SENP protease inhibitor project, biochemical, luminescence, set 2 (AID 588599). It counts as functional.

In assay [3] the target is T4, Sentrin-specific protease 6 (Homo sapiens, UniProt Q9GZR1).
T4 sequence (Q9GZR1 whole entry): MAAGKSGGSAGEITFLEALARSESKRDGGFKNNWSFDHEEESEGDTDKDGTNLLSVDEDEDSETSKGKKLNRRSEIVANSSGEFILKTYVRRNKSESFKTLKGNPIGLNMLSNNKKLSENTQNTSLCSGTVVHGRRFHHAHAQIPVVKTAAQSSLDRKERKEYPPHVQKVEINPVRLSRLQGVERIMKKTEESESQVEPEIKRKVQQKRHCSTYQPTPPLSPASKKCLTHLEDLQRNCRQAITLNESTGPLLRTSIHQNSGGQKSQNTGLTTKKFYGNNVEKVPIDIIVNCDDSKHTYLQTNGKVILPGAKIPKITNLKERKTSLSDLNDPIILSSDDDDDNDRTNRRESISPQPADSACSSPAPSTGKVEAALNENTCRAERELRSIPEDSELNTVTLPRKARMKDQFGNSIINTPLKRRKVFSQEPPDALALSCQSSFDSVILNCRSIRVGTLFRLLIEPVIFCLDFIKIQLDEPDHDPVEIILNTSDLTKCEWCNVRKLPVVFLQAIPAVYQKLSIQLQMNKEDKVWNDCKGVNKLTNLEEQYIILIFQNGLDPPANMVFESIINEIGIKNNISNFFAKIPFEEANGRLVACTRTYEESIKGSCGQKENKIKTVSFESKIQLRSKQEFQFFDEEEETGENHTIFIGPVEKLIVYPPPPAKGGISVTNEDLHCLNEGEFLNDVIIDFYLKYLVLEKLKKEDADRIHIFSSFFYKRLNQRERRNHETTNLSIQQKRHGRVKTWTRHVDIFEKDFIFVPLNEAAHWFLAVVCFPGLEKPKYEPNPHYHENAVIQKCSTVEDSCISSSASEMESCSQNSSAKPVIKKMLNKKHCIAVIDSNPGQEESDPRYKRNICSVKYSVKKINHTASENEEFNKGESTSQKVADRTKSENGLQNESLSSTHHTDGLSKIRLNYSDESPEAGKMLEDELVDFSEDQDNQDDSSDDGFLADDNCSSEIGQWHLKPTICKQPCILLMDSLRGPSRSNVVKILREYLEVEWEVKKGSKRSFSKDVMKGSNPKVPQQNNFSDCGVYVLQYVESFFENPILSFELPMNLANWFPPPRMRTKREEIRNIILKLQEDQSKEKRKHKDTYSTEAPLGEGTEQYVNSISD
The experiment in a line: SENP6 protease inhibitors, SAR follow-up, biochemical, luminescence, set 2 (AID 588598). It is filed as functional.

Assay [4] addresses T2, Sentrin-specific protease 8. It is filed as functional.
The target is the same in assay [5]. It is filed as functional. This is another data set of the same source.
Another assay deals with CHO. Put plainly: cytotoxicity in TLR9-MyD88 CHO cells, dose response, cytotoxicity control for TLR9-MyD88 binding inhibitor project, cell-based, luminescence (AID 588339).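 Further: CHO cells stably coexpressing TLR9 and MyD88 fusions from primary screen; compound exposure lasted 48 hours before viability readout.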 It is filed as functional, hamster. Particulars: Cricetulus griseus.
A further assay has as its target Beta Lactamase (Pseudomonas aeruginosa, UniProt Q932Y6). The experiment in a line: beta-lactamase reporter inhibitor potency, dose response, artefact control for TLR9-MyD88 binding inhibitor project, BLA reporter cells, FRET fluorescence (AID 588341).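 Further: cell based assay in CHO-K1 cells stably expressing beta-lactamase.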 It is filed as cell-based.
Another assay has as its target T5, CAAX prenyl protease 2 (Saccharomyces cerevisiae S288c, UniProt Q03530).
T5 sequence (Q03530 whole entry): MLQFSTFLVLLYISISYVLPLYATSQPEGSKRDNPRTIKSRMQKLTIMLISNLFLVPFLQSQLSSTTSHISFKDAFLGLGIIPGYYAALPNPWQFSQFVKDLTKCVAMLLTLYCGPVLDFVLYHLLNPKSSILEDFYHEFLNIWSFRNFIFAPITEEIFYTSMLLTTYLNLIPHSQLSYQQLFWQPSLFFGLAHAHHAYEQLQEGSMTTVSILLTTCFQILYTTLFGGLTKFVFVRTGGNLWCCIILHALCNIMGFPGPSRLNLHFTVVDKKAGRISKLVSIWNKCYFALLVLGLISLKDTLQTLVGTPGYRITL
The experiment in a line: yeast Rce1 CaaX protease inhibitors, dose response, biochemical, plate reader, dry powder retest (AID 588851).

Activity calls are given as the source filed them.

Beta Lactamase, sequence (Q932Y6 whole entry): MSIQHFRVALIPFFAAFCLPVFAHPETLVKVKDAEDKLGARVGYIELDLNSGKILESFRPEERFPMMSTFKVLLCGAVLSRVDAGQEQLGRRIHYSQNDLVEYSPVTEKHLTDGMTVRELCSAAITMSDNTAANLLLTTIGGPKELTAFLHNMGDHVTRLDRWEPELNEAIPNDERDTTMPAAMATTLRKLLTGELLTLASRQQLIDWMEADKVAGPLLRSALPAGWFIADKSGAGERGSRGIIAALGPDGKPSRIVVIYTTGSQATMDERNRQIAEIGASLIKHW

As a reminder, the IC50 is the point on the concentration scale where inhibition reaches its midpoint. Consider `CC(C)(C)C(=O)N1CCC(C(=O)Nc2nc3c(F)cc(F)cc3s2)CC1`, for which the IC50 (in assay [1]; in assay [2]; at Caspase-3; in assay [3]) was > 99 µM (inactive) each time.
`Cc1ccc(N2C(=O)Cc3ccccc3C2=O)cc1`: the IC50 in assay [4] was 3.36 µM (active); in [5], > 100 µM (inactive); with CHO, > 49.8 µM (inactive); at Beta Lactamase it was 4.59 µM (active).
The term AC50 denotes the midpoint of the concentration-response curve, whichever way the signal moves. Turning to `CCCOc1ccc(-c2c(C(=O)N/N=C/c3cccs3)nnn2-c2nonc2N)cc1`, on CAAX prenyl protease 2, the AC50 is 54.9 µM (active).
